Key:
rat neurons = assay: PSD-95 puncta on rat neurons exposed to IFNα; format: cell-based; settings: IFNα 300 IU/mL, compared to control neurons
Experimental: (§1) Rat neurons were either obtained from Brain Bits (Cat #SDECX; embryonic day 18) and cultured in NBACTIV1 media (Cat #nbactivl) until day 14, when they are relatively “mature”, or cortical neurons were prepared from embryonic day 18 Sprague Dawley fetuses. Two different densities of neurons were utilized, based on test procedures. For PSD-95 puncta, low density cultures (10,000 neurons/cm') were placed on 12 mm poly D Lysine (Sigma cat #2636) coated coverslips, incubated in wells with glia (astrocytes) or removed for IFNα (300 IU/ml) exposure. High density cultures (500,000 neurons/60 mm dish) were used for protein extraction. These cultures contained approximately 2-3% glia (GFAP immunostaining).
Rat neurons were seeded on poly-L-lysine coated coverslips and co-cultured with astroglia. On day 14, half of the conditioned medium from co-culture was transferred to new 6 well plates. […] PSD-95 puncta were identified and counted with SYNPANAL software. […] PSD-95 puncta along the region were counted and divided by the length to obtain PSD-95 puncta/unit. […] For each treatment, the average puncta/unit was determined by averaging the puncta/unit for each neuron (at least 10/treatment in each replicate plate). For each treatment within the experiment, the average puncta/unit is determined by averaging the puncta/unit for each replicate of that treatment (thus, n=3/treatment) for 20 min and 2 hours. […]

Arf1 = Arf1 expression in rat neuronal cultures (proteomics, Western blot); format: cell-based; settings: IFNα 300 IU/ml
Experimental: as §1
Protein samples (5 to 10 micrograms) were resolved in Criterion precast gels (Bio-Rad) and transferred to a PVDF membrane using a semidry system (Bio-Rad). All blocking antibody and washing steps were performed at room temperature (RT) on a rocker. Membranes were incubated for one hour in 3% non-fat dry milk in TBST (25 mM Tris, 140 mM NaCl, 3 mM KCl, and 0.05% Tween-20), then 4 hr in anti-Arfl antibody (cat #ARP75924_P050, Aviva; 1:1000) diluted in 1% non-fat dry milk in TBST. Membranes were briefly washed in TBST followed by 3 separate 5 minute incubations in TBST. Membranes were incubated for one hour with goat anti-rabbit IgG HRP (cat #NEF812001EA, Perkin Elmer 1:5,000) diluted in 1% non-fat dry milk in TBST. Final washing included a quick rinse with ddH2O, 2 min wash in TBST, 4 min wash in TBST, and 5 min wash in 1× TBS. Immunoreactive bands were detected with chemiluminescence using ECL Prime substrate (cat #RPN2236, GE Healthcare Life Sciences) on a Chemidoc imager (Bio-Rad), and quantified with ImageJ (NIH). Arf1 signal was normalized to GAPDH Western blot (WB) intensity (cat #MAB374, Millipore;1:20,000).
For proteomic analysis of total protein, rat cortical neurons were cultured in 60 mm dishes in high density (described above). After 14 days, cells were treated with 300 IU/mL IFNα for 20 min, 2 hr, 8 hr, 24 hr, or 48 hr. For comparison of the proteome, untreated cells were given sterile, distilled water (vehicle) equal to the volume of IFNα. After incubations, cells were washed once in RT phosphate buffered saline (PBS) and scraped into 500 microliters of PBS. Cell slurries were snap frozen in a dry ice ethanol bath and processed by the Emory University Proteomics Core.
To select proteins for further analysis, GO-Elite software was used. […] These lists of accession numbers were derived by identifying proteins for which the total peptide spectral match (PSM) was seven-fold (or more) lower in the IFNα treated sample than in the control sample. […] Thus, Arfl was selected for WB analysis.

AMPA receptor (AMPAR) = assay: AMPA receptor (GLuR2) immunofluorescent staining of rat neurons; format: cell-based; settings: IFNα exposure for 2 hours
Experimental: Rat neurons were fixed with 4% paraformaldehyde in PBS for 20 min at RT. They were incubated with anti-GLuR2 (EMD Millipore, Burlington Mass.; 1:100), a subunit of the AMPA receptor (AMPAR), for 1 hour at RTO in the dark. After washes, this was followed by incubation with DAPI […] (Images were subjected ImageJ software for densitometric analysis).

rat neuronal cultures = settings: mediated through IFNAR and NMDAR, earlier studies; cited from earlier work

Substance: IFNα
- PSD-95 puncta (rat neurons; 20 minutes): significantly decreased
- PSD-95 puncta (rat neurons; 2 hours): significantly decreased
- Arf1 level (Western blot) (Arf1; 2 hours): decreases
- Arf1 level (Western blot) (Arf1; 4 hours): decreases
- Arf1 level (Western blot) (Arf1; 8 hours (data not shown)): decreased
- Arf1 level (Western blot) (Arf1; 24 hours (data not shown)): not consistently
- neuronal surface expression of AMPARs (AMPA receptor (AMPAR)): significantly decreased
- effect on dendrites of rat neuronal cultures (rat neuronal cultures): dendritic simplification
